Laboratory results reported in PubChem BioAssay AID1963443 (Molecular Pharmacology Branch, DTP, NCI, 2024).

System: MDA-MB-231 complex spheroids, growth inhibition
Test: Anticancer human tumor MDA-MB-231 cell line growth inhibition [Asc];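 further: spheroids exposed to compounds for 7 days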
Conditions: for IC50: curve of first compound; for viability, T/C: stronger effect = lower value
Outline: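 Complex spheroids combining tumor cells with HUVEC endothelial cells and human MSCs, at 37 degrees C, 5% CO2; agents tested alone or combined, half-log dilutions from at or near clinical Cmax, or 10 microM if Cmax unknown.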

[1] = second compound 0.01 µM, first compound 0.00316 µM
[2] = second compound 0.01 µM, first compound 0.01 µM
[3] = second compound 0.01 µM, first compound 0.0316 µM
[4] = second compound 0.01 µM, first compound 0.1 µM
[5] = second compound 0.01 µM, first compound 0.316 µM
[6] = second compound 0.01 µM, first compound 1 µM
[7] = second compound 0.0316 µM, first compound 0.00316 µM
[8] = second compound 0.0316 µM, first compound 0.01 µM
[9] = second compound 0.0316 µM, first compound 0.0316 µM
[10] = second compound 0.0316 µM, first compound 0.1 µM
[11] = second compound 0.0316 µM, first compound 0.316 µM
[12] = second compound 0.0316 µM, first compound 1 µM
[13] = second compound 0.1 µM, first compound 0.00316 µM
[14] = second compound 0.1 µM, first compound 0.01 µM
[15] = second compound 0.1 µM, first compound 0.0316 µM
[16] = second compound 0.1 µM, first compound 0.1 µM
[17] = second compound 0.1 µM, first compound 0.316 µM
[18] = second compound 0.1 µM, first compound 1 µM
[19] = second compound 0.316 µM, first compound 0.00316 µM
[20] = second compound 0.316 µM, first compound 0.01 µM
[21] = second compound 0.316 µM, first compound 0.0316 µM
[22] = second compound 0.316 µM, first compound 0.1 µM
[23] = second compound 0.316 µM, first compound 0.316 µM
[24] = second compound 0.316 µM, first compound 1 µM
[25] = second compound 1 µM, first compound 0.00316 µM
[26] = second compound 1 µM, first compound 0.01 µM
[27] = second compound 1 µM, first compound 0.0316 µM
[28] = second compound 1 µM, first compound 0.1 µM
[29] = second compound 1 µM, first compound 0.316 µM
[30] = second compound 1 µM, first compound 1 µM

How did the IC50 (second compound 0.01 µM) turn out when CCN1CCN(Cc2ccc(Nc3ncc(F)c(-c4cc(F)c5nc(C)n(C(C)C)c5c4)n3)nc2)CC1 + CNC(C)C(=O)NC1CN(S(=O)(=O)c2cccc(S(=O)(=O)N3CCC4CCC(C(=O)NC(c5ccccc5)c5ccccc5)N4C(=O)C(NC(=O)C(C)NC)C3)c2)CCC2CCC(C(=O)NC(c3ccccc3)c3ccccc3)N2C1=O was run?
The IC50 was under 3.16 nM.

What about the IC50 (second compound 0.0316 µM) of the same compound?
Its IC50 is under 3.16 nM.

And the IC50 (second compound 0.1 µM)?
The IC50 was under 3.16 nM.

And the IC50 (second compound 0.316 µM)?
Its IC50 is under 3.16 nM.

What about the IC50 (second compound 1 µM) of the same compound?
The IC50 was under 3.16 nM.

And the viability, T/C [1]?
Its viability, T/C is 2.49%.

What about the viability, T/C [2] of the same compound?
The viability, T/C was 2.43%.

And the viability, T/C [3]?
Its viability, T/C is 2.51%.

And the viability, T/C [4]?
Its viability, T/C is 1.88%.

What about the viability, T/C [5] of the same compound?
The viability, T/C was 2.98%.

And the viability, T/C [6]?
Its viability, T/C is 2.28%.

What about the viability, T/C [7] of the same compound?
Its viability, T/C is 1.93%.

And the viability, T/C [8]?
The viability, T/C was 1.53%.

And the viability, T/C [9]?
Its viability, T/C is 1.38%.

What about the viability, T/C [10] of the same compound?
Its viability, T/C is 1.94%.

What about the viability, T/C [11] of the same compound?
Its viability, T/C is 1.87%.

What about the viability, T/C [12] of the same compound?
Its viability, T/C is 1.71%.

What about the viability, T/C [13] of the same compound?
The viability, T/C was 1.19%.

What about the viability, T/C [14] of the same compound?
The viability, T/C was 1.19%.

And the viability, T/C [15]?
The viability, T/C was 1.61%.

What about the viability, T/C [16] of the same compound?
Its viability, T/C is 1.32%.

And the viability, T/C [17]?
The viability, T/C was 1.44%.

What about the viability, T/C [18] of the same compound?
The viability, T/C was 1.16%.

What about the viability, T/C [19] of the same compound?
Its viability, T/C is 0.98%.

And the viability, T/C [20]?
The viability, T/C was 1.26%.

What about the viability, T/C [21] of the same compound?
The viability, T/C was 1.17%.

And the viability, T/C [22]?
The viability, T/C was 1.28%.

And the viability, T/C [23]?
Its viability, T/C is 1.38%.

What about the viability, T/C [24] of the same compound?
Its viability, T/C is 1.15%.

What about the viability, T/C [25] of the same compound?
The viability, T/C was 1.1%.

What about the viability, T/C [26] of the same compound?
Its viability, T/C is 0.95%.

What about the viability, T/C [27] of the same compound?
The viability, T/C was 1.26%.

What about the viability, T/C [28] of the same compound?
The viability, T/C was 1.51%.

And the viability, T/C [29]?
The viability, T/C was 1.22%.

What about the viability, T/C [30] of the same compound?
Its viability, T/C is 1.35%.

With Cn1ncnc1[C@H]1c2n[nH]c(=O)c3cc(F)cc(c23)N[C@@H]1c1ccc(F)cc1 + CNC(C)C(=O)NC1CN(S(=O)(=O)c2cccc(S(=O)(=O)N3CCC4CCC(C(=O)NC(c5ccccc5)c5ccccc5)N4C(=O)C(NC(=O)C(C)NC)C3)c2)CCC2CCC(C(=O)NC(c3ccccc3)c3ccccc3)N2C1=O as the compound, how does the IC50 (second compound 0.01 µM) read?
Its IC50 is under 0.316 nM.

What about the IC50 (second compound 0.0316 µM) of the same compound?
The IC50 was under 0.316 nM.

What about the IC50 (second compound 0.1 µM) of the same compound?
Its IC50 is under 0.316 nM.

And the IC50 (second compound 0.316 µM)?
The IC50 was under 0.316 nM.

And the IC50 (second compound 1 µM)?
Its IC50 is under 0.316 nM.

What about the viability, T/C (second compound 0.01 µM, first compound 0.000316 µM) of the same compound?
The viability, T/C was 1.83%.

What about the viability, T/C (second compound 0.01 µM, first compound 0.001 µM) of the same compound?
The viability, T/C was 2.14%.

And the viability, T/C [1]?
Its viability, T/C is 2.04%.

And the viability, T/C [2]?
The viability, T/C was 2.04%.

And the viability, T/C [3]?
Its viability, T/C is 1.45%.

What about the viability, T/C [4] of the same compound?
The viability, T/C was 1.63%.

What about the viability, T/C (second compound 0.0316 µM, first compound 0.000316 µM) of the same compound?
The viability, T/C was 1.73%.

And the viability, T/C (second compound 0.0316 µM, first compound 0.001 µM)?
The viability, T/C was 1.45%.

What about the viability, T/C [7] of the same compound?
The viability, T/C was 1.76%.

What about the viability, T/C [8] of the same compound?
Its viability, T/C is 1.3%.

What about the viability, T/C [9] of the same compound?
The viability, T/C was 1.2%.

What about the viability, T/C [10] of the same compound?
The viability, T/C was 1.22%.

And the viability, T/C (second compound 0.1 µM, first compound 0.000316 µM)?
The viability, T/C was 1.17%.

And the viability, T/C (second compound 0.1 µM, first compound 0.001 µM)?
Its viability, T/C is 1.47%.

And the viability, T/C [13]?
Its viability, T/C is 0.96%.

And the viability, T/C [14]?
The viability, T/C was 1.19%.

What about the viability, T/C [15] of the same compound?
The viability, T/C was 1.34%.

And the viability, T/C [16]?
The viability, T/C was 1.16%.

What about the viability, T/C (second compound 0.316 µM, first compound 0.000316 µM) of the same compound?
The viability, T/C was 1.12%.

What about the viability, T/C (second compound 0.316 µM, first compound 0.001 µM) of the same compound?
Its viability, T/C is 1.11%.

What about the viability, T/C [19] of the same compound?
The viability, T/C was 1.32%.

And the viability, T/C [20]?
Its viability, T/C is 0.91%.

And the viability, T/C [21]?
The viability, T/C was 1.05%.

And the viability, T/C [22]?
The viability, T/C was 1.11%.

What about the viability, T/C (second compound 1 µM, first compound 0.000316 µM) of the same compound?
The viability, T/C was 1.53%.

And the viability, T/C (second compound 1 µM, first compound 0.001 µM)?
Its viability, T/C is 1.2%.

And the viability, T/C [25]?
The viability, T/C was 1.23%.

And the viability, T/C [26]?
The viability, T/C was 1.23%.

What about the viability, T/C [27] of the same compound?
Its viability, T/C is 1.28%.

What about the viability, T/C [28] of the same compound?
Its viability, T/C is 1.26%.

O=C(c1ccc(F)c(F)c1Nc1ccc(I)cc1F)N1CC(O)([C@@H]2CCCCN2)C1 + CNC(C)C(=O)NC1CN(S(=O)(=O)c2cccc(S(=O)(=O)N3CCC4CCC(C(=O)NC(c5ccccc5)c5ccccc5)N4C(=O)C(NC(=O)C(C)NC)C3)c2)CCC2CCC(C(=O)NC(c3ccccc3)c3ccccc3)N2C1=O was tested. Which IC50 (second compound 0.01 µM) did it give?
The IC50 was under 3.16 nM.

What about the IC50 (second compound 0.0316 µM) of the same compound?
Its IC50 is under 3.16 nM.

And the IC50 (second compound 0.1 µM)?
Its IC50 is under 3.16 nM.

And the IC50 (second compound 0.316 µM)?
Its IC50 is under 3.16 nM.

What about the IC50 (second compound 1 µM) of the same compound?
The IC50 was under 3.16 nM.

What about the viability, T/C [1] of the same compound?
The viability, T/C was 1.58%.

And the viability, T/C [2]?
Its viability, T/C is 1.82%.

And the viability, T/C [3]?
The viability, T/C was 1.57%.

And the viability, T/C [4]?
The viability, T/C was 1.24%.

What about the viability, T/C [5] of the same compound?
The viability, T/C was 0.45%.

What about the viability, T/C [6] of the same compound?
Its viability, T/C is 0.19%.

And the viability, T/C [7]?
The viability, T/C was 2%.

And the viability, T/C [8]?
The viability, T/C was 1.64%.

And the viability, T/C [9]?
Its viability, T/C is 1.23%.

And the viability, T/C [10]?
The viability, T/C was 0.72%.

What about the viability, T/C [11] of the same compound?
The viability, T/C was 0.39%.

And the viability, T/C [12]?
Its viability, T/C is 0.17%.

And the viability, T/C [13]?
Its viability, T/C is 0.99%.

What about the viability, T/C [14] of the same compound?
The viability, T/C was 0.94%.

What about the viability, T/C [15] of the same compound?
The viability, T/C was 0.88%.

And the viability, T/C [16]?
The viability, T/C was 0.74%.

What about the viability, T/C [17] of the same compound?
Its viability, T/C is 0.5%.

And the viability, T/C [18]?
The viability, T/C was 0.25%.

What about the viability, T/C [19] of the same compound?
Its viability, T/C is 1.14%.

And the viability, T/C [20]?
Its viability, T/C is 0.91%.

And the viability, T/C [21]?
The viability, T/C was 0.9%.

And the viability, T/C [22]?
The viability, T/C was 1.27%.

What about the viability, T/C [23] of the same compound?
The viability, T/C was 0.57%.

What about the viability, T/C [24] of the same compound?
Its viability, T/C is 0.2%.

What about the viability, T/C [25] of the same compound?
The viability, T/C was 1.64%.

What about the viability, T/C [26] of the same compound?
Its viability, T/C is 1.24%.

And the viability, T/C [27]?
Its viability, T/C is 1.11%.

And the viability, T/C [28]?
The viability, T/C was 1.67%.

What about the viability, T/C [29] of the same compound?
Its viability, T/C is 1.13%.

And the viability, T/C [30]?
The viability, T/C was 0.21%.
